Reference: PubChem BioAssay AID248 (DTP/NCI, 2004)
“And” between values parts separate entries of the source, which are not always exact repeats. Equal values may be shown once. Inconclusive results and toxic doses are left out.

Test system: L1210 leukemia ip in BDF1 mice, survival T/C
Test: NCI In Vivo Anticancer Drug Screen. Data for tumor model L1210 Leukemia (intraperitoneal) in B6D2F1 (BDF1) mice
Details: endpoint: mean survival time, higher = longer survival
Method in brief: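 Mice bearing the transplanted tumor received compound or vehicle. Survival of the treated group was divided by that of the vehicle-treated control group to give the ratio.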

[1] = dose: 100.0 mg/kg/injection, schedule: Q01DX001 (ip), vehicle: saline
[2] = dose: 200.0 mg/kg/injection, schedule: Q01DX001 (ip), vehicle: saline
[3] = dose: 400.0 mg/kg/injection, schedule: Q01DX001 (ip), vehicle: saline
[4] = dose: 100.0 mg/kg/injection, schedule: Q04DX003 (ip), vehicle: saline
[5] = dose: 200.0 mg/kg/injection, schedule: Q04DX003 (ip), vehicle: saline
[6] = dose: 100.0 mg/kg/injection, schedule: Q01DX009 (ip), vehicle: Klucel (hydroxypropylcellulose) (HPC)
[7] = dose: 100.0 mg/kg/injection, schedule: Q04DX003 (ip), vehicle: Klucel (hydroxypropylcellulose) (HPC)
[8] = dose: 200.0 mg/kg/injection, schedule: Q04DX003 (ip), vehicle: Klucel (hydroxypropylcellulose) (HPC)
[9] = dose: 400.0 mg/kg/injection, schedule: Q04DX003 (ip), vehicle: Klucel (hydroxypropylcellulose) (HPC)
[10] = dose: 100.0 mg/kg/injection, schedule: Q01DX009 (ip), vehicle: saline with Tween-80
[11] = dose: 100.0 mg/kg/injection, schedule: Q04DX003 (ip), vehicle: saline with Tween-80
[12] = dose: 200.0 mg/kg/injection, schedule: Q01DX009 (ip), vehicle: saline with Tween-80
[13] = dose: 200.0 mg/kg/injection, schedule: Q04DX003 (ip), vehicle: saline with Tween-80
[14] = dose: 10.0 mg/kg/injection, schedule: Q01DX001 (ip), vehicle: saline
[15] = dose: 20.0 mg/kg/injection, schedule: Q01DX001 (ip), vehicle: saline
[16] = dose: 50.0 mg/kg/injection, schedule: Q01DX009 (ip), vehicle: saline
[17] = dose: 100.0 mg/kg/injection, schedule: Q01DX009 (ip), vehicle: saline

Structure (SMILES): Oc1ccc(N=Cc2ccccc2O)cc1
- T/C [1]: 90 % of control
- T/C (dose: 116.0 mg/kg/injection, schedule: Q01DX015 (ip), vehicle: steriod suspending solution): 108 % of control
- T/C (dose: 175.0 mg/kg/injection, schedule: Q01DX015 (ip), vehicle: steriod suspending solution): 123 % of control
- T/C (dose: 178.0 mg/kg/injection, schedule: Q01DX001 (ip), vehicle: steriod suspending solution): 100 % of control
- T/C [2]: 207 % of control
- T/C (dose: 267.0 mg/kg/injection, schedule: Q01DX001 (ip), vehicle: steriod suspending solution): 103 % of control
- T/C (dose: 270.0 mg/kg/injection, schedule: Q01DX Z (ip), vehicle: carboxymethylcellulose (CMC)): 104 % of control
- T/C [3]: 260 % of control
- T/C (dose: 400.0 mg/kg/injection, schedule: Q01DX001 (ip), vehicle: steriod suspending solution): 101 % of control
- T/C (dose: 400.0 mg/kg/injection, schedule: Q01DX Z (ip), vehicle: carboxymethylcellulose (CMC)): 115 % of control
- T/C (dose: 600.0 mg/kg/injection, schedule: Q01DX001 (ip), vehicle: steriod suspending solution): 105 % of control

Structure (SMILES): Cc1ccc(S(=O)(=O)OCC(F)(F)C(F)(F)C(F)(F)COS(=O)(=O)c2ccc(C)cc2)cc1
- T/C (dose: 75.0 mg/kg/injection, schedule: Q04DX002 (ip), vehicle: saline with Tween-80): 88 % of control
- T/C (dose: 150.0 mg/kg/injection, schedule: Q04DX002 (ip), vehicle: saline with Tween-80): 91 % of control
- T/C (dose: 300.0 mg/kg/injection, schedule: Q04DX002 (ip), vehicle: saline with Tween-80): 95 % of control

Structure (SMILES): CC(=O)CC(=O)Nc1cc(C)ccc1C
- T/C [4]: 101 % of control
- T/C [5]: 118 % of control
- T/C (dose: 400.0 mg/kg/injection, schedule: Q04DX003 (ip), vehicle: saline): 95 % of control

Structure (SMILES): CCOC(=O)CNNC(=O)C(O)C(O)C(O)C(O)CO (configuration not stated)
- T/C [1]: 87 % of control
- T/C [2]: 100 % of control
- T/C [3]: 100 % of control

Structure (SMILES): CC1(C)OC2OC(COS(C)(=O)=O)C(O)C2O1 (configuration not stated)
- T/C (dose: 12.5 mg/kg/injection, schedule: Q01DX009 (ip), vehicle: Klucel (hydroxypropylcellulose) (HPC)): 100 % of control
- T/C (dose: 25.0 mg/kg/injection, schedule: Q01DX009 (ip), vehicle: Klucel (hydroxypropylcellulose) (HPC)): 105 % of control
- T/C (dose: 50.0 mg/kg/injection, schedule: Q01DX009 (ip), vehicle: Klucel (hydroxypropylcellulose) (HPC)): 105 % of control
- T/C (dose: 50.0 mg/kg/injection, schedule: Q04DX003 (ip), vehicle: Klucel (hydroxypropylcellulose) (HPC)): 92 % of control
- T/C [6]: 103 % of control
- T/C [7]: 100 % of control
- T/C [8]: 91 % of control
- T/C [9]: 102 % of control

Structure (SMILES): CSCCC(C#N)c1ccccc1 (configuration not stated)
- T/C (dose: 50.0 mg/kg/injection, schedule: Q01DX009 (ip), vehicle: saline with Tween-80): 93 % of control
- T/C [10]: 104 % of control
- T/C [11]: 103 % of control
- T/C [4]: 103 % of control
- T/C [12]: 110 % of control
- T/C [13]: 97 % of control
- T/C [5]: 97 % of control

Structure (SMILES): O=C(COc1ccc(Cl)cc1)Nc1ccc[n+](Cc2ccc(S(=O)(=O)F)cc2)c1
- T/C [6]: 105 % of control
- T/C (dose: 200.0 mg/kg/injection, schedule: Q01DX009 (ip), vehicle: Klucel (hydroxypropylcellulose) (HPC)): 101 % of control

Structure (SMILES): COc1ccccc1C(=O)N/N=C/c1cccc2ccccc12
- T/C [10]: 114 % of control
- T/C [11]: 103 % of control
- T/C [12]: 105 % of control
- T/C [13]: 96 % of control
- T/C (dose: 400.0 mg/kg/injection, schedule: Q01DX009 (ip), vehicle: saline with Tween-80): 107 % of control
- T/C (dose: 400.0 mg/kg/injection, schedule: Q04DX003 (ip), vehicle: saline with Tween-80): 94 % of control

Structure (SMILES): CN(Cc1ccccc1)C(=S)[S-].CN(Cc1ccccc1)C(=S)[S-].[Zn]
- T/C (dose: 2.5 mg/kg/injection, schedule: Q01DX009 (ip), vehicle: acetone): 100 % of control
- T/C (dose: 5.0 mg/kg/injection, schedule: Q01DX009 (ip), vehicle: acetone): 87 % of control
- T/C (dose: 5.0 mg/kg/injection, schedule: Q04DX003 (ip), vehicle: saline): 95 % of control
- T/C [14]: 91 % of control
- T/C (dose: 10.0 mg/kg/injection, schedule: Q01DX009 (ip), vehicle: acetone): 89 % of control
- T/C (dose: 10.0 mg/kg/injection, schedule: Q04DX003 (ip), vehicle: saline): 92 % of control
- T/C [15]: 93 % of control
- T/C (dose: 20.0 mg/kg/injection, schedule: Q04DX003 (ip), vehicle: saline): 89 % of control

Structure (SMILES): CC1([N+](=O)[O-])COP(=O)(N2CC2)OC1 (configuration not stated)
- T/C (dose: 62.5 mg/kg/injection, schedule: Q01DX Z (ip), vehicle: carboxymethylcellulose (CMC)): 87 % of control
- T/C (dose: 125.0 mg/kg/injection, schedule: Q01DX Z (ip), vehicle: carboxymethylcellulose (CMC)): 90 % of control

Structure (SMILES): NC(=O)NN=C1CCC(CC2CCCCC2)CC1 (configuration not stated)
- T/C (dose: 25.0 mg/kg/injection, schedule: Q04DX003 (ip), vehicle: saline with Tween-80): 102 % of control
- T/C (dose: 50.0 mg/kg/injection, schedule: Q04DX003 (ip), vehicle: saline with Tween-80): 102 % of control

Structure (SMILES): Nc1ncnc2c1ncn2C1COC(CO)C1O (configuration not stated)
- T/C [1]: 103 % of control
- T/C [2]: 107 % of control
- T/C [3]: 107 % of control

Structure (SMILES): CCCCCCCCCCCCCCCCS(=O)(=O)c1ccccc1NC(N)=O
- T/C [7]: 97 % of control
- T/C [8]: 98 % of control
- T/C [9]: 95 % of control

Structure (SMILES): C[n+]1c(-c2ccccc2)c2cc(N)ccc2c2ccccc21
- T/C (dose: 0.2 mg/kg/injection, schedule: Q01DX Z (ip), vehicle: methylcellulose (MC)): 108 % of control
- T/C (dose: 0.3 mg/kg/injection, schedule: Q01DX Z (ip), vehicle: methylcellulose (MC)): 113 % of control
- T/C (dose: 0.5 mg/kg/injection, schedule: Q01DX Z (ip), vehicle: methylcellulose (MC)): 102 % of control and 114 % of control
- T/C (dose: 0.75 mg/kg/injection, schedule: Q01DX Z (ip), vehicle: methylcellulose (MC)): 111 % of control
- T/C (dose: 1.0 mg/kg/injection, schedule: Q01DX Z (ip), vehicle: methylcellulose (MC)): 107 % of control and 120 % of control
- T/C (dose: 1.5 mg/kg/injection, schedule: Q01DX Z (ip), vehicle: methylcellulose (MC)): 104 % of control
- T/C (dose: 1.5 mg/kg/injection, schedule: Q01DX Z (ip), vehicle: saline): 111 % of control
- T/C (dose: 2.0 mg/kg/injection, schedule: Q01DX Z (ip), vehicle: carboxymethylcellulose (CMC)): 106 % of control
- T/C (dose: 2.0 mg/kg/injection, schedule: Q01DX Z (ip), vehicle: methylcellulose (MC)): 110 % of control and 113 % of control
- T/C (dose: 3.0 mg/kg/injection, schedule: Q01DX Z (ip), vehicle: carboxymethylcellulose (CMC)): 112 % of control
- T/C (dose: 3.0 mg/kg/injection, schedule: Q01DX Z (ip), vehicle: methylcellulose (MC)): 117 % of control
- T/C (dose: 3.0 mg/kg/injection, schedule: Q01DX Z (ip), vehicle: saline): 117 % of control
- T/C (dose: 4.0 mg/kg/injection, schedule: Q01DX Z (ip), vehicle: methylcellulose (MC)): 121 % of control
- T/C (dose: 4.4 mg/kg/injection, schedule: Q01DX Z (ip), vehicle: carboxymethylcellulose (CMC)): 110 % of control
- T/C (dose: 6.6 mg/kg/injection, schedule: Q01DX Z (ip), vehicle: carboxymethylcellulose (CMC)): 120 % of control
- T/C (dose: 8.0 mg/kg/injection, schedule: Q01DX Z (ip), vehicle: methylcellulose (MC)): 121 % of control and 122 % of control
- T/C [14]: 100 % of control
- T/C [15]: 117 % of control
- T/C (dose: 24.0 mg/kg/injection, schedule: Q01DX Z (ip), vehicle: saline): 112 % of control
- T/C (dose: 40.0 mg/kg/injection, schedule: Q01DX001 (ip), vehicle: saline): 100 % of control

Structure (SMILES): O=C(Nc1ccc2c(c1)OCO2)O/N=C1\C(=O)Nc2ccccc21
- T/C [16]: 103 % of control
- T/C [17]: 100 % of control

Structure (SMILES): CN(C)c1ccc(C(O)C(N)=O)cc1 (configuration not stated)
- T/C (dose: 6.25 mg/kg/injection, schedule: Q01DX001 (ip), vehicle: saline): 103 % of control
- T/C (dose: 12.5 mg/kg/injection, schedule: Q01DX001 (ip), vehicle: saline): 94 % of control
- T/C (dose: 25.0 mg/kg/injection, schedule: Q01DX001 (ip), vehicle: saline): 97 % of control

Structure (SMILES): CC12CC3C(C(=O)O)C(C(=O)O)C1C(C(=O)O2)C3C(=O)O (configuration not stated)
- T/C [16]: 97 % of control
- T/C [1]: 91 % of control
- T/C [17]: 90 % of control
- T/C [2]: 89 % of control
- T/C (dose: 200.0 mg/kg/injection, schedule: Q01DX009 (ip), vehicle: saline): 100 % of control
- T/C [3]: 87 % of control
